Structures can show the parent of a compound that is named as a salt.
Tests used:
[1] = target: T1, σ1-receptor (Cavia porcellus, UniProt Q60492); assay: Sigma-1 receptor binding assay, [3H](+)-pentazocine, brain membranes; details: guinea pig brain membranes; for % Binding σ1 10^−7M: compound at 10^−7 M; for % Binding σ1 10^−7M / % Binding σ1 10^−8M: [3H](+)-pentazocine 0.5 nM; for % Binding σ1 10^−8M: compound at 10^−8 M; for Ki: Sigma-1 receptor, [3H](+)-pentazocine
T1 construct: guinea pig brains were homogenized; from tissue; host or cells: guinea pig brain membranes
Procedure: Brain membrane preparation and binding assays for the σ1-receptor were performed as described (DeHaven-Hudkins et al., 1992) with some modifications. In brief, guinea pig brains were homogenized in 10 vols. (w/v) of Tris-HCl 50 mM 0.32 M sucrose, pH 7.4, with a Kinematica Polytron PT 3000 at 15000 r.p.m. for 30 s. The homogenate was centrifuged at 1000 g for 10 min at 4° C. and the supernatants collected and centrifuged again at 48000 g for 15 min at 4° C. The pellet was resuspended in 10 volumes of Tris-HCl buffer (50 mM, pH 7.4), incubated at 37° C. for 30 min, and centrifuged at 48000 g for 20 min at 4° C. Following this, the pellet was resuspended in fresh Tris-HCl buffer (50 mM, pH 7.4) and stored on ice until use.
Each assay tube contained 10 μL of [^3H](+)-pentazocine (final concentration of 0.5 nM), 900 μL of the tissue suspension to a final assay volume of 1 mL and a final tissue concentration of approximately 30 mg tissue net weight/mL. Non-specific binding was defined by addition of a final concentration of 1 μM haloperidol. All tubes were incubated at 37° C. for 150 min before termination of the reaction by rapid filtration over Schleicher & Schuell GF 3362 glass fibre filters [previously soaked in a solution of 0.5% polyethylenimine for at least 1 h]. Filters were then washed with four times with 4 mL of cold Tris-HCl buffer (50 mM, pH 7.4). Following addition of scintillation cocktail, the samples were allowed to equilibrate overnight. The amount of bound radioactivity was determined by liquid scintillation spectrometry using a Wallac Winspectral 1414 liquid scintillation counter. Protein concentrations were determined by the method of Lowry et al. (1951).

[2] = system: capsaicin-induced allodynia; assay: Von Frey filaments in a model of capsaicin-induced allodynia; format: in vivo; design: dose or concentration left out as unconfirmed; details: mice; capsaicin injected into paw; mechanical stimulus (von Frey)
Procedure: In-Vivo-Experiments Using Von Frey Filaments in a Model of Capsaicine—Induced Allodynia:
This model is described in detail in the experimental part of WO 2006/010587 A1, examples 1 and 2, the description being included here by reference. Capsaicin is thereby injected into experimental animals to produce acute pain followed by allodynia.
Briefly after habituation mice were first treated with the test-compound (or not in controls). Then capsaicin (1% DMSO) is injected into their paw resulting in developing pain in the effected paw. The effected paw is then treated with a mechanical stimulus and the latency time before the paw is withdrawn is measured.

T1 sequence (Q60492 whole entry): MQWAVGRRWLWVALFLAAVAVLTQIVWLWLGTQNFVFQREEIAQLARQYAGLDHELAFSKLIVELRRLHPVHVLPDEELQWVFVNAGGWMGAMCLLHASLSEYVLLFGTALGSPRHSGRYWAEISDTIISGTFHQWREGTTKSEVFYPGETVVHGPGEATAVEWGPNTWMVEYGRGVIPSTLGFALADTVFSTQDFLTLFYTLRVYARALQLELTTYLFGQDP

CC(=O)C1CCN(CCOc2ccn(-c3ccc(Cl)cc3Cl)n2)CC1.O=C(O)C(=O)O (hydrate or solvate) [Example 7, 1-(1-[2-{1-(2.4-Dichlo-rophenyl)-1H-pyrazol-3-yloxy}ethyl]piperi-din-4-yl)ethanone oxalate]
melting point: 137 to 140 °C

CC(=O)N1CCN(CCOc2nn(-c3ccc(Cl)c(Cl)c3)c(C)c2C)CC1.O=C(O)C(=O)O (hydrate or solvate) [Example 12, 1-(4-(2-(1-(3,4-Dichlo-rophenyl)-4,5-dimethyl-1H-pyrazol-3-yloxy)ethyl)piperazin-1-yl)ethanone oxalate]
melting point: 180 to 184 °C

Cc1cc(OCCN2CCC(n3cnc4cccnc43)CC2)nn1-c1ccc(Cl)c(Cl)c1 [Example 1, 3-{1-[2-(1-(3,4-Dichlorophenyl)-5-methyl-1H-pyrazol-3-yloxy)ethyl]piperidin-4-yl}-3H-imidazo[4,5-b]pyridine]
% Binding σ1 10^−7M [1]: 94.4%
% Binding σ1 10^−8M [1]: 49.4%
melting point: 104 to 107 °C

Cc1cc(OCCN2CCC(N)C2)nn1-c1ccc(Cl)c(Cl)c1 (stereo not drawn) [Example 2, 1-{2-[1-(3,4-Dichlorophenyl)-5-methyl-1H-pyrazol-3-yloxy]ethyl}pyrrolidin-3-amine]
% Binding σ1 10^−7M [1]: 90.7%
% Binding σ1 10^−8M [1]: 53.2%

CCOC(=O)N1CCN(CCOc2cc(C)n(-c3ccc(Cl)c(Cl)c3)n2)CC1 [Example 3, Ethyl 4-{2-[1-(3,4-dichlorophenyl)-5-methyl-1H-pyrazol-3-yloxy]ethyl}piperazine carboxylate]
% Binding σ1 10^−7M [1]: 99.5%
% Binding σ1 10^−8M [1]: 58.4%

CC(=O)N1CCN(CCOc2cc(C)n(-c3ccc(Cl)c(Cl)c3)n2)CC1 [Example 4, 1-(4-(2-(1-(3,4-dichlorophenyl)-5-methyl-1H-pyrazol-3-yloxy)ethyl)piperazin-1-yl)ethanone]
% Binding σ1 10^−7M [1]: 99.4%
% Binding σ1 10^−8M [1]: 82.5%

CC(=O)C1CCN(CCOc2ccn(-c3ccc(Cl)c(Cl)c3)n2)CC1.O=C(O)C(=O)O [Example 5, 1-{1-[2-(1-(3,4-Dichlorophenyl)-1H-pyrazol-3-yloxy)ethyl]piperidin-4-yl}ethanone oxalate]
Ki [1]: 1.3 ± 0.4 nM
melting point: 98 to 100 °C

CC(=O)N1CCN(CCOc2ccn(-c3ccc(Cl)c(Cl)c3)n2)CC1.O=C(O)C(=O)O [Example 6, 1-{4-[2-(1-(3,4-Dichlo-rophenyl)-1H-pyrazol-3-yloxy)ethyl]pipera-zin-1-yl}ethanone oxalate]
Ki [1]: 4.2 nM
analgesia [2]: 77%
melting point: 206 to 210 °C

CC(=O)C1CCN(CCOc2ccn(-c3ccc(Cl)cc3Cl)n2)CC1 [Example 7, 1-(1-[2-{1-(2.4-Dichlo-rophenyl)-1H-pyrazol-3-yloxy}ethyl]piperi-din-4-yl)ethanone oxalate]
Ki [1]: 1.5 nM

CC(=O)C1CCN(CCOc2ccn(-c3ccc(Cl)cc3)n2)CC1.O=C(O)C(=O)O [Example 8, 1-(1-(2-(1-(4-Chloro-phenyl)-1H-pyrazol-3-yloxy)ethyl)piperidin-4-yl)ethanone oxalate]
Ki [1]: 1.3 nM
melting point: 150 to 153 °C

CC(=O)C1CCN(CCOc2cc(C)n(-c3ccc(Cl)c(Cl)c3)n2)CC1.O=C(O)C(=O)O [Example 9, 1-(1-(2-(1-(3,4-Dichlo-rophenyl)-5-methyl-1H-pyrazol-3-yloxy)ethyl)piperidin-4-yl)ethanone oxalate]
Ki [1]: 8.3 nM
melting point: 158 to 165 °C

CC(=O)N1CCN(CCCCOc2nn(-c3ccc(Cl)c(Cl)c3)c(C)c2C)CC1.O=C(O)C(=O)O [Example 10, 1-(4-(4-(1-(3,4-Dichlo-rophenyl)-4,5-dimethyl-1H-pyrazol-3-yloxy)butyl)piperazin-1-yl)ethanone oxalate]
melting point: 186 to 188 °C

CC(=O)N1CCN(CCOc2ccn(-c3ccc(Cl)cc3Cl)n2)CC1.O=C(O)C(=O)O [Example 11, 1-(4-(2-(1-(2,4-Dichlo-rophenyl)-1H-pyrazol-3-yloxy)ethyl)piperazin-1-yl)ethanone oxalate]
melting point: 156 to 158 °C

CC(=O)N1CCN(CCCCOc2cc(C)n(-c3ccc(Cl)c(Cl)c3)n2)CC1 [Example 13, 1-(4-{4-[1-(3,4-Dichloro-phenyl)-5-methyl-1H-pyrazol-3-yloxy]-butyl}-piperazin-1-yl)-ethanone]
melting point: 147 to 150 °C
